{"source": "ChEMBL document CHEMBL1140613", "about": "“Antituberculosis drugs: ten years of research” (2007)", "tested_on": "Mycobacterium tuberculosis", "experiment": "Antituberculosis activity against Mycobacterium tuberculosis", "format": "functional"}
{"smiles": "COc1nc2ccc(Br)cc2cc1[C@@H](c1ccccc1)[C@@](O)(CCN(C)C)c1cccc2ccccc12", "note": "[BEDAQUILINE]", "values": [{"measurement": "MIC99", "value": 0.06, "unit": "µg/mL"}]}
